These are literature values, as cited in patent US10954336B2 (SCRUM Co., Ltd., priority 2017, dated 2021).

The conditions of this series: comparison / conventional substances.

With `C[C@H](O)C(=O)O` [L-lactic acid], the Acidity result is listed as “yes”.
